This passage reports IC50 results from patent US6706709B2, “Indolinone derivatives as protein kinase/phosphatase inhibitors” (Sugen, Inc., priority 2000, dated 2004).

As usually defined, the IC50 is the point on the concentration scale where inhibition reaches its midpoint. A low value points to greater potency in that assay.

One assay has as its target T1, EGF Receptor (Homo sapiens, UniProt P00533).
T1 construct: expressed in transfected cells; host or cells: NIH 3T3/C7 (mouse fibroblasts engineered to express human EGF-R)
The assay is described as follows: bio EGF (EGF Receptor ELISA). In kind it is biochemical. The method, then:
EGF Receptor kinase activity in cells genetically engineered to express human EGF-R was measured as described below:
The following materials and reagents were used:
b. 05-101 (UBI) (a monoclonal antibody recognizing an EGFR extracellular domain).
c. Anti-phosphotyrosine antibody (anti-Ptyr) (polyclonal).
d. Detection antibody: Goat anti-rabbit lgG horse radish peroxidase conjugate, TAGO, Inc., Burlingame, Calif.
Keep solution in dark at 4° C. until used.
The following protocol was used:
1. […] Coated plates are good for up to 10 days when stored at 4° C.
2. On day of use, remove coating buffer and replace with blocking buffer (5% Carnation Instant Non-Fat Dry Milk in PBS). Incubate the plate, shaking, at room temperature (about 23° C. to 25° C.) for 30 minutes. Just prior to use, remove blocking buffer and wash plate 4 times with TBST buffer.
2. Choose dishes having 80-90% confluence for the experiment. Trypsinize cells and stop reaction by adding 10% CS DMEM medium. Suspend cells in DMEM medium (10% CS DMEM medium) and centrifuge once at 1000 rpm at room temperature for 5 minutes.
3. Resuspend cells in seeding medium (DMEM, 0.5% bovine serum), and count the cells using trypan blue. Viability above 90% is acceptable. Seed cells in DMEM medium (0.5% bovine serum) at a density of 10,000 cells per well, 100 μL per well, in a 96 well microtiter plate. Incubate seeded cells in 5% CO2 at 37° C. for about 40 hours.
1. Check seeded cells for contamination using an inverted microscope. Dilute drug stock (10 mg/ml in DMSO) 1:10 in DMEM medium, then transfer 5 μL to a test well for a final drug dilution of 1:200 and a final DMSO concentration of 1%. Control wells receive DMSO alone. Incubate in 5% CO2 at 37° C. for one hour.
2. Prepare EGF ligand: dilute stock EGF in DMEM so that upon transfer of 10 μL dilute EGF (1:12 dilution), 25 nM final concentration is attained.
3. Prepare fresh 10 ml HNTG* sufficient for 100 μL per well wherein HNTG* comprises: HNTG stock (2.0 mL), milli-Q H2O (7.3 mL), EDTA, 100 mM, pH 7.0 (0.5 mL), Na3VO4 0.5 M (0.1 mL) and Na4(P2O7), 0.2 M (0.1 mL).
5. After two hours incubation with drug, add prepared EGF ligand to cells, 10 μL per well, to yield a final concentration of 25 nM. Control wells receive DMEM alone. Incubate, shaking, at room temperature, for 5 minutes.
6. Remove drug, EGF, and DMEM. Wash cells twice with PBS. Transfer HNTG* to cells, 100 μL per well. Place on ice for 5 minutes. Meanwhile, remove blocking buffer from other ELISA plate and wash with TBST as described above.
7. With a pipette tip securely fitted to a micropipettor, scrape cells from plate and homogenize cell material by repeatedly aspirating and dispensing the HNTG* lysis buffer. Transfer lysate to a coated, blocked, and washed ELISA plate. Incubate shaking at room temperature for one hour.
8. Remove lysate and wash 4 times with TBST. Transfer freshly diluted anti-Ptyr antibody to ELISA plate at 100 μL per well. Incubate shaking at room temperature for 30 minutes in the presence of the anti-Ptyr antiserum (1:3000 dilution in TBST).
9. Remove the anti-Ptyr antibody and wash 4 times with TBST. Transfer the freshly diluted TAGO 30 anti-rabbit IgG antibody to the ELISA plate at 100 μL per well. Incubate shaking at room temperature for 30 minutes (anti-rabbit IgG antibody: 1:3000 dilution in TBST).
10. Remove detection antibody and wash 4 times with TBST. Transfer freshly prepared ABTS/H2O2 solution to ELISA plate, 100 μL per well. Incubate at room temperature for 20 minutes. ABTS/H2O2 solution: 1.2 μL 30% H2O2in 10 mL ABTS stock.
11. Stop reaction by adding 50 μL 5N H2SO4 (optional), and determine O.D. at 410 nm.
12. The maximal phosphotyrosine signal is determined by subtracting the value of the negative controls from the positive controls. The percent inhibition of phosphotyrosine content for extract-containing wells is then calculated, after subtraction of the negative controls.
(In general: An ELISA detects its analyte on a solid surface through an enzyme-linked reagent.)

The next assay deals with GST-Flk1 (UniProt P35918). The assay can be described thus: GST-FLK-1 bioassay (bio flkGST). In kind it is biochemical. The method, then: This assay analyzes the tyrosine kinase activity of GST-Flk1 on poly glu tyr peptides.
2. poly glu tyr 4:1, lyophilizate (Sigma Catalog # P0275). Prepare 1 mg/mL poly glu tyr in sterile PBS and store in 1 ml aliquots at −20° C.
3. Preparation of poly glu tyr (pEY) coated assay plates: Coat 2 μg/well of poly glu tyr (pEY) in 100 μL PBS at room temperature for 2 hours or at +4° C. overnight. Cover plates well to prevent evaporation.
4. PBS Buffer: To make 1 liter of a 1× working solution, mix […], 1.15 g NA2HPO4, 0.2 g KCl and 8 g NaCl in approx. 900 mL dH2O. When all reagents have dissolved, adjust the pH to 7.2 with HCl. Bring total volume to 1L with dH2O.
5. PBS-Tw Buffer: To 1L of PBS Buffer, add […] Tween-20. Stir until dissolved.
6. TBB-Blocking Buffer: To make one liter of a 1× working solution, mix 1.21 g TRIS, 8.77 g NaCl, 1 mL TWEEN-20 in approximately 900 mL dH2O. Adjust pH to 7.2 with HCl. Add 10 g BSA, stir to dissolve. Bring total volume to 1 L with dH2O. Filter to remove particulate matter.
7. 1% BSA in PBS: To make a 1× working solution, add 10 g BSA to approx. 990 mL PBS buffer, stir to dissolve. Adjust total volume to 1 L with PBS buffer, filter to remove particulate matter.
9. GST-Flk1cd purified from sf9 recombinant baculovirus transformation.
13. Kinase Dilution Buffer (KDB): Mix 10 mL Hepes (pH 7.5), 1 mL of 5 M NaCl, 40 μL of 100 mM NaVO4 and 0.4 mL of 5% BSA in dH2O with 88.56 mL of dH2O.
14. NUNC-96-well V bottom polypropylene plates Applied Scientific Catalog # AS-72092
15. EDTA: Mix 14.12 g ethylenediaminetetraacetic acid (EDTA) to approx. 70 mL dH2O. Add 10N NaOH until EDTA dissolves. Adjust pH to 8.0. Adjust total volume to 100 mL with dH2O.
16. 1° Antibody Dilution Buffer: Mix 10 mL of 5% BSA in PBS buffer with 89.5 mL TBSTw.
17. Anti-phosphotyrosine monoclonal conjugated to horseradish peroxidase (PY99 HRP, Santa Cruz Biotech).
18. 2,2′-Azino-bis(3-ethylbenzthiazoline-6-sulfonic acid (ABTS, Moss, Cat. No. ABST).
1. Coat Corning 96 well ELISA plates with 2 μg of polyEY peptide in sterile PBS as described in step 3 of Materials and Reagents.
2. Remove unbound liquid from wells by inverting plate. Wash once with TBSTw. Pat the plate on a paper towel to remove excess liquid.
3. Add 100 μL of 1% BSA in PBS to each well. Incubate, with shaking, for 1 hr. at room temperature.
5. Soak wells with 50 mM Hepes pH7.5 (150 μL/well).
6. Dilute test compound with dH2O/4% DMSO to 4 times the desired final assay concentration in 96-well polypropylene plates.
7. Add 25 μL diluted test compound to ELISA plate.
8. Add 25 μL of 40 mM MnCl2 with 4×ATP (2 μM) to all wells.
9. Add 25 μL 0.5 M EDTA to negative control wells.
10. Dilute GST-Flk1 0.005 μg (5 ng)/well in KDB. For 50 ml KDB add 100 μL of 0.050 mg/mL GST-Flk1 enzyme.
11. Add 50 μL of diluted enzyme to each well.
12. Incubate, with shaking, for 15 minutes at room temperature.
13. Stop reaction by adding 50 μL of 250 mM EDTA (pH 8.0).
14. Wash 3× with TBSTw and pat plate on paper towel to remove excess liquid.
15. Add 100 μL per well anti-phosphotyrosine HRP conjugate, 1:5,000 dilution in antibody dilution buffer. Incubate, with shaking for 90 min. at room temperature.
16. Wash as described above in step 14.
17. Add 100 μL of room temperature ABTS solution to each well.
18. Incubate, with shaking, for 10 to 15 minutes. Remove any bubbles.
19. Stop reaction by adding 20 μL of 10% SDS.
20. Read assay on Dynatech MR7000 ELISA reader: test filter at 410 nM; reference filter at 630 nM.

T1 sequence (P00533 25-1210): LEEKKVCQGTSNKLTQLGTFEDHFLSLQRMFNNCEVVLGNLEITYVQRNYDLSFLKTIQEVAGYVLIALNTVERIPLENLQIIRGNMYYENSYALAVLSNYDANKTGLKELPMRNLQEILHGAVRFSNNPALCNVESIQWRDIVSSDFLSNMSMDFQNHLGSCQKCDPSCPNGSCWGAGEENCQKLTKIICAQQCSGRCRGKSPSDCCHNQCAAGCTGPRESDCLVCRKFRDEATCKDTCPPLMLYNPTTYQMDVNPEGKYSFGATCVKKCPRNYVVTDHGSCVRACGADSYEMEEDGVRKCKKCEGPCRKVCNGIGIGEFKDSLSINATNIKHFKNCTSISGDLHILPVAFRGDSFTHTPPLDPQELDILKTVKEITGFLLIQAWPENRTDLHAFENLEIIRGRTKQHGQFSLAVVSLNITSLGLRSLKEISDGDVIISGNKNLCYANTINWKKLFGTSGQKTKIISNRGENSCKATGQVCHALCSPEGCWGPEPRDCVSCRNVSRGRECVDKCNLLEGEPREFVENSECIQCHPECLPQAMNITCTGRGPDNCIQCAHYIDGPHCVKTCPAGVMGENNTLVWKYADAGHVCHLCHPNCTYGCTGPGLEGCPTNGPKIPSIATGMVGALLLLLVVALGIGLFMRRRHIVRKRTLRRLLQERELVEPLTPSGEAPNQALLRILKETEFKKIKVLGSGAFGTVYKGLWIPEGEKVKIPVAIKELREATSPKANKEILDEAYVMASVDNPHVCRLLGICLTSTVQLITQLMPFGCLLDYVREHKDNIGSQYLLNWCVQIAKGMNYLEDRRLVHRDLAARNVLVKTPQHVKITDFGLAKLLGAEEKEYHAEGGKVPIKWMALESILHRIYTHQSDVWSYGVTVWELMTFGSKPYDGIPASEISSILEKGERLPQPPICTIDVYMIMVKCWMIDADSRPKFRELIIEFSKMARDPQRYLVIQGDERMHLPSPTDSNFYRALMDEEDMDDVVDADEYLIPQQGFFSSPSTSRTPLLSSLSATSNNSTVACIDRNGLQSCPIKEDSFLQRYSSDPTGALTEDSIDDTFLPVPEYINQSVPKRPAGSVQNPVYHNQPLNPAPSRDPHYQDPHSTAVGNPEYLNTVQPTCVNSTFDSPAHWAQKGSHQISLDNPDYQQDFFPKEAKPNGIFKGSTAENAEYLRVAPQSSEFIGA

As for `O=C1Nc2ccc(S(=O)(=O)N3CCCc4ccccc43)cc2C1=Cc1cc2cc(OCCN3CCCC3)ccc2[nH]1` [IN-050, 5-(3,4-dihydro-2H-quinoline-1-sulfonyl)-3-[5-(2-pyrrolidin-1-yl-ethoxy)-1H-indol-2-ylmethylene]-1,3-dihydro-indol-2-one], the IC50 on EGF Receptor was 2400 nM; at GST-Flk1, 710 nM.

In the case of `O=C1Nc2ccc(Br)cc2C1=Cc1cc2cc(OCCN3CCCC3)ccc2[nH]1` [IN-014, 5-bromo-3-[5-(2-pyrrolidin-1-yl-ethoxy)-1H-indol-2-ylmethylene]-1,3-dihydro-indol-2-one], the values for the IC50 on EGF Receptor and against GST-Flk1 were 43500 nM and 3 nM, respectively.

`CCN(CC)CCOc1ccc2[nH]c(C=C3C(=O)Nc4ccc(-c5ccccc5)cc43)cc2c1` [IN-019, 3-[5-(2-diethylamino-ethoxy)-1H-indol-2-ylmethylene]-5-phenyl-1,3-dihydro-indol-2-one]: the IC50 against EGF Receptor was 9550 nM; against GST-Flk1 it was 160 nM.

For `COc1ccc(-c2ccc3c(c2)NC(=O)C3=Cc2cc3cc(OCCN4CCCC4)ccc3[nH]2)cc1` [IN-026, 6-(4-methoxy-phenyl)-3-[5-(2-pyrrolidin-1-yl-ethoxy)-1H-indol-2-ylmethylene]-1,3-dihydro-indol-2-one], the IC50 at EGF Receptor was over 20000 nM; on GST-Flk1 it was 760 nM.

For `O=C1Nc2ccc(S(=O)(=O)Nc3ccccc3)cc2C1=Cc1cc2cc(OCCN3CCOCC3)ccc2[nH]1` [IN-056, 3-[5-(2-morpholin-4-yl-ethoxy)-1H-indol-2-ylmethylene]-2-oxo-2,3-dihydro-1H-indole-5-sulfonic acid phenylamide], the IC50 is 15500 nM at EGF Receptor and 9960 nM against GST-Flk1.

With `O=C1Nc2ccc(S(=O)(=O)Nc3cccc(Cl)c3)cc2C1=Cc1cc2cc(OCCN3CCCC3)ccc2[nH]1` [IN-047, 2-oxo-3-[5-(2-pyrrolidin-1-yl-ethoxy)-1H-indol-2-ylmethylene]-2,3-dihydro-1H-indole-5-sulfonic acid (3-chloro-phenyl)-amide], the figures for the IC50 on EGF Receptor and against GST-Flk1 were 870 nM and 390 nM, respectively.

In the case of `CN(C)S(=O)(=O)c1ccc2c(c1)C(=Cc1cc3cc(OCCN4CCOCC4)ccc3[nH]1)C(=O)N2` [IN-054, 3-[5-(2-morpholin-4-yl-ethoxy)-1H-indol-2-ylmethylene]-2-oxo-2,3-dihydro-1H-indole-5-sulfonic acid dimethylamide], the figures for the IC50 at EGF Receptor and against GST-Flk1 were over 20000 nM and 4280 nM, respectively.

As for `O=C1Nc2ccc(S(=O)(=O)N3CCc4ccccc43)cc2C1=Cc1cc2cc(OCCN3CCCC3)ccc2[nH]1` [IN-046, 5-(2,3-dihydro-indole-1-sulfonyl)-3-[5-(2-pyrrolidin-1-yl-ethoxy)-1H-indol-2-ylmethylene]-1,3-dihydro-indol-2-one], the IC50 against EGF Receptor was found to be 1230 nM; on GST-Flk1 it was 1050 nM.

Regarding `O=C1Nc2ccc(S(=O)(=O)N3CCc4cc(Br)ccc43)cc2C1=Cc1cc2cc(OCCN3CCCC3)ccc2[nH]1` [IN-052, 5-(5-bromo-2,3-dihydro-indole-1-sulfonyl)-3-[5-(2-pyrrolidin-1-yl-ethoxy)-1H-indol-2-ylmethylene]-1,3-dihydro-indol-2-one], the IC50 on EGF Receptor was 1160 nM; at GST-Flk1 it was 1020 nM.

Turning to `CNS(=O)(=O)c1ccc2c(c1)C(=Cc1cc3cc(OCCN4CCOCC4)ccc3[nH]1)C(=O)N2` [IN-053, 3-[5-(2-morpholin-4-yl-ethoxy)-1H-indol-2-ylmethylene]-2-oxo-2,3-dihydro-1H-indole-5-sulfonic acid methylamide], the IC50 was determined as 15200 nM at EGF Receptor and 1210 nM on GST-Flk1.

Consider `CN(C)S(=O)(=O)c1ccc2c(c1)C(=Cc1c[nH]c3ccccc13)C(=O)N2` [IN-072, 3-(1H-indol-3-ylmethylene)-2-oxo-2,3-dihydro-1H-indole-5-sulfonic acid dimethylamide], for which the values for the IC50 against EGF Receptor and against GST-Flk1 were over 100000 nM and over 20000 nM, respectively.

For the compound `CCN(CC)CCOc1ccc2[nH]c(C=C3C(=O)Nc4ccccc43)cc2c1` [IN-016, 3-[5-(2-diethylamino-ethoxy)-1H-indol-2-ylmethylene]-1,3-dihydro-indol-2-one], the IC50 was over 10000 nM against EGF Receptor and 50 nM against GST-Flk1.
